# According to PubChem BioAssay AID504765 (Sanford-Burnham Center for Chemical Genomics, 2011):
# Activity calls are given as the source filed them. The rule behind the calls is not given here.
# Molecular target: glucose-6-phosphate dehydrogenase-6-phosphogluconolactonase (Plasmodium falciparum 3D7)
# Assay: PfG6PD inhibitor potency, dose response, biochemical, fluorescence intensity (AID 504765)
# Conditions: Recombinant PfG6PD enzyme, fluorescence intensity (NADPH)
row,Compound,IC50
1,Cc1ccc(C)c(-n2sc3ccc(F)cc3c2=O)c1,1.24 µM
2,Clc1nssc1=Nc1nncs1,14.3 µM
3,O=c1[nH]c2ccc(NCc3ccccc3OCc3ccc(Cl)cc3)cc2[nH]1,> 80 µM (inactive)
4,CCc1ccccc1N1CSC2=C(C#N)C(c3ccccc3F)CC(=O)N2C1 (configuration not stated),9.2 µM
5,Cc1[nH]c(=S)c(C#N)c(C)c1CCC#N,inactive
6,Cc1cc(C)c[n+](C2=C([O-])c3ccccc3C(=O)/C2=N\S(=O)(=O)c2cccs2)c1,15.3 µM
7,CCCN1CCc2cccc3c2[C@H]1Cc1ccc(O)c(O)c1-3,15 µM
8,CC(=O)Nc1ccc(S(=O)(=O)NNc2cccc(C)c2)cc1,inactive
9,O=S(=O)(Nc1ccc(Cl)cc1)c1ccc(N2CCOCC2)c(NC(=S)NCCN2CCOCC2)c1,15.1 µM
10,CCN(CC)c1ccc(C(=C2C=CC(=[N+](CC)CC)C=C2)c2ccc(N(CC)CC)cc2)cc1,10.3 µM
11,Nn1c(SCC(=O)Nc2cccnc2Cl)nnc1-c1ccccc1,inactive
12,O=C(O)CSc1cc(NS(=O)(=O)c2ccc(Cl)cc2)c2ccccc2c1O,4.17 µM
13,O=[N+]([O-])c1c(NCCO)cc(Sc2nc3ccccc3s2)c2nonc12,10.2 µM
14,Cc1c(C(=O)N(Cc2ccccc2Cl)C2CCS(=O)(=O)C2)oc2ccccc12 (configuration not stated),4.36 µM
15,Cc1cc(O)c(-c2cc(O)c(C)cc2O)cc1O,1.88 µM
16,CCN(CC)C(=O)c1c(C)[nH]c(=S)c(C#N)c1-c1ccco1,inactive
17,O=C(O)CSc1cc(NS(=O)(=O)c2cccc([N+](=O)[O-])c2)c2ccccc2c1O,1.34 µM
18,COC1=C(N)C(=O)c2nc(C)ccc2C1=O,6.3 µM
19,COc1cc(N)c2ncsc2c1,15.5 µM

row,Compound,IC50
1,COCCNC(=S)Nc1ccc(N2CCOCC2)c(S(=O)(=O)Nc2ccc(Cl)cc2)c1,19.4 µM
2,Cc1ccc2nc(-c3ccc(NC(=S)NC4CC(C)(C)NC(C)(C)C4)cc3)sc2c1,2.39 µM
3,CCN1CCN(C(=S)c2ccc(O)cc2)CC1,inactive
4,Oc1ccc(C2C[C@H]3CC[C@@H]2C3)cc1O (some centres not stated),5.71 µM
5,Cc1cccc(OCC(=O)NCC(=O)N/N=C/c2ccccc2)c1,9.37 µM
6,O=c1c2cc([N+](=O)[O-])ccc2sn1-c1ccccc1,5.27 µM
7,CC(Cc1ccc(O)c(O)c1)C(C)Cc1ccc(O)c(O)c1 (configuration not stated),inactive
8,CN(C)c1ccc(C=c2c3cc([N+](=O)[O-])ccc3n3c2cc(-c2ccccc2)[n+]3C)cc1,8.44 µM
9,O=C(Nc1nnc(S(=O)(=O)N2CCCCCC2)s1)c1cccc(Br)c1,15.1 µM
10,CCOC(=O)c1c(C2COc3ccccc3O2)csc1NC(=O)c1ccco1 (configuration not stated),14.2 µM
11,Nc1[nH]c(=O)[nH]c(=O)c1N=Cc1ccccc1,3.29 µM
12,CCOC(=O)c1c2ccc(OCC(=O)NN)cc2n2ccccc12,15.3 µM
13,O=C(Nc1ccc(N2CCOCC2)c(Cl)c1)c1ccc(Cl)cc1,4.87 µM
14,COc1ccc(CCn2c(NN)nc3c2c(=O)[nH]c(=O)n3C)cc1,7.35 µM
15,O=C(COc1cccc2ccccc12)Nc1ccc(Cl)cc1C(=O)O,13.5 µM
16,COc1ccccc1N1C(=O)C=C(Sc2nc(C)cc(C)n2)C1=O,7.18 µM
17,O=C1Nc2ccccc2C(=O)C1(Cl)Cc1ccccc1 (configuration not stated),9.57 µM
18,NC(=O)N/N=C/c1ccc(-n2nncc2-c2ccc(Cl)cc2)cc1,11.8 µM
19,O=C(Nc1nnc(C2CC2)s1)c1ccc(Cl)nc1,4.18 µM

row,Compound,IC50
1,COc1cccc(/C=N/NC(=O)CSc2cccc3cccnc23)c1,5.46 µM
2,Brc1cc2[nH]cnc2c2ccccc12,17.6 µM
3,CCOC(=O)C1CCCN(C(=O)Cn2sc3nc(C)cc(C)c3c2=O)C1 (configuration not stated),3.15 µM
4,C=CCN1CCc2cccc3c2[C@H]1Cc1ccc(O)c(O)c1-3,19.6 µM
5,O=C1C(=Cc2cccc(O)c2O)SC(=S)N1CCCN1CCOCC1,14.1 µM
6,CSc1nnc(NC(=O)c2ccc3c(c2)OCO3)s1,2.82 µM
7,O=C1C=C(NCCc2cc(Br)c(O)c(Br)c2)C(=O)c2ncccc21,1.35 µM
8,COc1ccc(C(=O)Nc2sc3c(c2C(=O)O)CC(C)(C)OC3)cc1,11 µM
9,O=C(CSc1nc2cc(Cl)ccc2s1)c1ccco1,6.04 µM
10,O=C1Nc2cc(C(=O)NCCCN3CCCC3)ccc2S/C1=C/c1cccc(Cl)c1,17.9 µM
11,CN(C)c1ccc(/C=C/c2ccc3c4ccccc4ccc3[n+]2-c2ccccc2)cc1,inactive
12,Cc1ccc(NNS(=O)(=O)c2ccc(C)cc2)cc1,12.6 µM
13,Cc1ccccc1-n1c(-c2ccc3ccccc3n2)n[nH]c1=S,14.4 µM
14,CCOc1ccccc1NS(=O)(=O)c1c(C)noc1C,9.95 µM
15,Cc1nc(COC(=O)c2cc(O)c3ccccc3c2O)cs1,3.52 µM
16,CCN(CC)C(=S)SSC(=S)N(CC)CC,10.1 µM
17,c1ccc(-c2cn3c(n2)CCc2ccc4cccnc4c2-3)cc1,8.54 µM
18,COc1ccc(C(=O)c2c(C(F)(F)F)oc3c2C(=O)c2ccccc2C3=O)cc1OC,inactive
19,Cc1nnc(N/N=C/c2ccc(-c3ccccc3F)o2)n1N,16.9 µM
